Test results taken from patent US12331121B2, “Efflux pump-cancer antigen multi-specific antibodies and compositions, reagents, kits and methods related thereto” (William Robert Arathoon Living Trust Dated August 29, 2016, priority 2019, dated 2025).

Legend:
N6ADR cells = assay: Paclitaxel sensitization of N6ADR cells in vitro; type: cell-based, human; conditions: FIG. 5, 6; compared to chemo only
Protocol: HEK 293T, MCF-7, N6ADR and SKNF7 cell lines expressing Pgp were obtained from the American Type Culture Collection. N6/ADR cells is also referred to as NALM6/ADR cells. All cell lines and lines derived from them were maintained in RPMI 1640 or DMEM supplemented with up to 10% fetal bovine serum (Sigma), nonessential amino acids, and 2 mmol/L L-glutamine at 37° C. and 5% CO2 in a humidified incubator (unless otherwise indicated). Cells were used as supplied or were modified to overexpress (Ox) Pgp or were subject to having Pgp expression knocked down (KD) with lentiviral-mediated short hairpin RNA or knock out (KO) of the functional CD47 gene by CRISPR/Cas-mediated knock out technology essentially as described (Cong, L. et al. (2013) Science 339, 819-823). For vincristine and paclitaxel IC50 determination, cells were plated in normal growth medium and allowed to adhere overnight. Paclitaxel or vincristine (Sigma) were added in a dilution series and any modulators were added within ranges of 0 to 500 μM/L. Cell viability was measured 72 h later using the Celltiter-Glo Luminescent Cell Viability Assay (Promega).
FIG. 5 and FIG. 6A-6C illustrate the enhanced killing of cells, by the antineoplastic agent paclitaxel, when cells are bound by the 15D3.aCD47:MRK16 bispecific antibody (highlighted with arrows).

293T naïve cells = assay: FACS binding to cells co-expressing Pgp and CD47; design: species or system human; conditions: FIG. 4
Protocol: In FIG. 4A-4B, the binding of the bispecific antibody is shown by FACS analysis against a variety of cell lines. The first scan (left panel in FIG. 4A and FIG. 4B) illustrates binding of the antibody to cells co-expressing both targets, (Pgp and CD47). […] FIG. 4A-4B further show binding with titrated antibody concentrations of 600 nM, 200 nM, 66 nM, 7.4 nM and 2 nM, with the signal measured from isotype and no antibody control also provided. The respective antibody concentrations are indicated in the left panel of FIG. 4A and FIG. 4B, and the measured signal from these different concentrations are generally overlapping in the middle and right panels of FIGS. 4A and 4B. FIG. 4A and FIG. 4B represent results obtained from two different batches of antibody.

NALM6 ADR cells = tested on: NALM6 ADR cells
From the text: Cells: NALM6 (ATCC) and NALM6 ADR (ATCC), B cell precursor lymphoblastic leukemia cell lines used in this study. NALM6 ADR is a multidrug resistant cell line derived from NALM6 cells.
Mice: Sixty-five 5-6-weeks-old female SCID-Beige mice (Charles River) were used in this study.
Inoculation-2×10^6 cells diluted in PBS:Matrigel (1:1) were subcutaneously injected using a 27G insulin syringe into fifty anesthetized 5-6-week-old female SCID-Beige mice under sterile conditions.
NALM6 ADR subcutaneous tumors: Mice were randomized into nine groups of five mice each—(i) Control isotype IgG1 15 mg/kg, (ii) Control isotype IgG1 15 mg/kg and 5 mg/kg of paclitaxel, (iii) Control isotype IgG1 15 mg/kg and 20 mg/kg of paclitaxel, (iv) BisP1.1 15 mg/kg, (v) BisP1.1 15 mg/kg and 5 mg/kg of paclitaxel, (vi) BisP1.1 15 mg/kg and 20 mg/kg of paclitaxel (vii) Valspodar 20 mg/kg (viii) Valspodar 20 mg/kg and 5 mg/kg of paclitaxel and (ix) Valspodar 20 mg/kg and […]. Antibody, Valspodar and paclitaxel were dosed intraperitoneally twice a week for four consecutive weeks. Antibody/valspodar were injected at least 4 hours prior to paclitaxel injection. Paclitaxel preparation: Since paclitaxel is poorly soluble, a master stock of 50 mg/ml was prepared in absolute ethanol:Kolliphor (1:1). Prior to injection the stock was diluted to recommended doses of 5 mg/kg or 20 mg/kg with PBS maintaining a ratio of (1:16).
Measurements: Tumor measurements were done thrice a week using a calibrated Vernier Caliper and tumor volume calculated as per the formula ½*L*S*S where L is the long axis and s is the short axis of the tumor. Body weights were recorded before treatment started and were continuously monitored throughout the study. Animal survival was evaluated from the first day of treatment until death. To avoid suffering, mice were euthanized when turning moribund according to the above-mentioned predefined criteria: rapid weight loss, loss of ability to ambulate, labored respiration, or inability to drink or feed.
Statistics: Tumor volume and body weights were compared between different experimental groups using exact one-way analysis of variance (ANOVA). Kaplan-Meier survival curves were compared between different treatment groups using the log-rank (Mantel-Cox) test. Statistical analyses were performed using Graph Pad Prism (GraphPad, San Diego, CA, USA) software. The level of significance was set at p<0.05 for all analyses.

cynomolgus RBCs = assay: Binding to cynomolgus erythrocytes; conditions: FIG. 22B; in contrast to anti-CD47 5F9
[1] = tested on: CTG-2616 patient-derived breast tumors; assay: CTG-2616 patient-derived breast cancer model; type: in vivo, mice; conditions: antibody 6 mg/kg and paclitaxel 5 mg/kg
From the text: Cells: CTG-2616 is a ER^+/Her2^+ primary breast cancer, derived from a patient presenting with recurrent ductal adenocarcinoma of the breast.
Mice: 5-6-weeks-old athymic Nude-Foxn1nu female nude mice (Envigo) were used in this study.
Inoculation—Snap-Frozen pieces of patient-derived tumors were thawed, cut into 5×5×5 mm and were subcutaneously injected into anesthetized 5-6-week-old female nude mice under sterile conditions. For tumor implantation procedure, a 1-1.5 cm incision was made on the implantation site and forceps were used to implant the tumor fragment. When sufficient stock animals reached 1000-1500 mm^3, tumors were harvested for re-implantation into pre-study animals. Pre-study animals were implanted unilaterally on the left flank with tumor fragments harvested from stock animals. Each animal was implanted from a specific passage lot and documented. Pre-study tumor volumes were recorded for each experiment beginning seven to ten days after implantation. When tumors reached an average tumor volume of 150-300 mm^3, animals were matched by tumor volume into treatment or control groups to be used for dosing and dosing initiated on Day 0. All surgical procedures were conducted under sterile conditions. […]

KBisP1.1: bispecific anti-MDR1/anti-CD47 antibody: 15D3 heavy chain, 5F9 (KT14) heavy chain, common MRK16 light chain, human IgG1
sensitivity of N6ADR cells to paclitaxel (N6ADR cells): enhanced | FACS binding when both targets are co-expressed (293T naïve cells): specific binding | tumor growth, agent alone (NALM6 ADR cells; 15 mg/kg i.p. twice a week): strong inhibition of tumor growth | tumor growth in combination with paclitaxel (NALM6 ADR cells; BisP1.1 15 mg/kg or valspodar 20 mg/kg with paclitaxel 5 or 20 mg/kg): significantly reduced tumor growth | survival (NALM6 ADR cells; valspodar with paclitaxel 20 mg/kg, BisP1.1 alone or plus paclitaxel, compared to control): prolonged survival | binding to cynomolgus erythrocytes (cynomolgus RBCs): no significant binding | tumor growth with paclitaxel [1]: tumor growth inhibition
